Activity calls are given as the source filed them. The rule behind the calls is not given here.

One assay has as its system KB. Briefly: Cytotoxicity against human KB cells. The format is functional, cell-based.
Another assay deals with LoVo. Briefly: Cytotoxicity against human LoVo cells. The format is functional, cell-based.
A further assay relates to Candida albicans. The experiment in a line: Antifungal activity against Candida albicans at 25 ug/disk. The format is functional, organism-based.
The subject of the next assay is Pseudomonas aeruginosa. Briefly: […] activity against Pseudomonas aeruginosa at 25 ug/disk. It counts as functional, organism-based.
In assay [1] the test system is Mycobacterium tuberculosis. The experiment in a line: […] activity against Mycobacterium tuberculosis 25177 at 25 ug/disk. The format is functional, organism-based.
The subject of assay [2] is Mycobacterium tuberculosis. Briefly: […] activity against Mycobacterium tuberculosis 35818 at 25 ug/disk. The format is functional, organism-based.
A short description of assay [3]: Inhibition of protease.
A short description of assay [4]: Inhibition of trypsin.
A short description of assay [5]: Inhibition of chymotrypsin.
The next assay deals with Plasminogen (Homo sapiens, UniProt P00747). Briefly: Inhibition of plasmin.
The nature of assay [6]: Inhibition of elastase.
The next assay concerns the target T1, Papain (Carica papaya, UniProt P00784).
T1 sequence (P00784 whole entry): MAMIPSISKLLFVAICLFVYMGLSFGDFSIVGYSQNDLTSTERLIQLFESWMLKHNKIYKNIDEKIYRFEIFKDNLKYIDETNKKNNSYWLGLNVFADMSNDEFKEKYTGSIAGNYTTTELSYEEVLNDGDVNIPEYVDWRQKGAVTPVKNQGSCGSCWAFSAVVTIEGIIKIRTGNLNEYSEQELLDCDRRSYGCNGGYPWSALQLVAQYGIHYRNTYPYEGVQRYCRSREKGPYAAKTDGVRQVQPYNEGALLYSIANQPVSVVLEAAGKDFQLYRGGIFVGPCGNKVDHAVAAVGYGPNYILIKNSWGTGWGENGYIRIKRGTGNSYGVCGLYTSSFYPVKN
The experiment in a line: Inhibition of papaya papain.

For the next assay, the target named is Prothrombin (Homo sapiens, UniProt P00734). Briefly: Inhibition of thrombin.

Sequence of Plasminogen (P00747 97-580 limits assumed): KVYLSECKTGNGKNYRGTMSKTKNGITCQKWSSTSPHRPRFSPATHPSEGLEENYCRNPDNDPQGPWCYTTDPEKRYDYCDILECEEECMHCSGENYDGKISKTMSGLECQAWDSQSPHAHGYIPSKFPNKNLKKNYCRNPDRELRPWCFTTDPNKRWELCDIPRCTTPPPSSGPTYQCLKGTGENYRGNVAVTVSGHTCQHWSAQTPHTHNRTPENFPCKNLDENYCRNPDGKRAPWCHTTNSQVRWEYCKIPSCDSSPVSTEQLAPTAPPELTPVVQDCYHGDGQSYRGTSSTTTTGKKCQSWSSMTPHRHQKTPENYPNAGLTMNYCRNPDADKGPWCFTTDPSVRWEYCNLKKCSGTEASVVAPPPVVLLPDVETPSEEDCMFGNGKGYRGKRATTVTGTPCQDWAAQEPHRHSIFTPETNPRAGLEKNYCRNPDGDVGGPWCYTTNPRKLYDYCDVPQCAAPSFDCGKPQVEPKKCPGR
Sequence of Plasminogen (P00747 581-810 limits assumed): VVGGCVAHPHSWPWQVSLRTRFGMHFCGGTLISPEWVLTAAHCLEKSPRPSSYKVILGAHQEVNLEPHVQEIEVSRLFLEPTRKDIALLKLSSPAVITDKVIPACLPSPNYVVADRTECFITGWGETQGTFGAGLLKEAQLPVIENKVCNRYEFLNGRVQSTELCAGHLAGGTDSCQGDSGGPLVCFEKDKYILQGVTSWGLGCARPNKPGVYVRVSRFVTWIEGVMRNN

In the case of `CC[C@H](C)[C@@H]1NC(=O)[C@@H](CCC(N)=O)NC(=O)CNC(=O)[C@H](Cc2ccc(O)cc2)/N=C/[C@H](CC(C)C)NC(=O)[C@@H]2C[C@H](C)CN2C(=O)[C@H](CO)NC1=O` [NOSTOCYCLOPEPTIDE A1], the IC50 (in general, the concentration that gives 50% inhibition) in the assay on KB was 1 µM; in the assay with LoVo it was 1 µM; in assay [4], more than 50 µM; in [5], less than 25 µM; at Plasminogen, more than 50 µM; in assay [6], less than 25 µM. In addition, the IC50 is less than 25 µM against Papain and more than 50 µM against Prothrombin. For the same compound, the outcome (in the assay with Candida albicans; in the assay on Pseudomonas aeruginosa; in [1]; in [2]; in assay [3]) was inactive.

Regarding `CC[C@H](C)[C@@H]1NC(=O)[C@@H](CCC(N)=O)NC(=O)CNC(=O)[C@H](Cc2ccc(O)cc2)/N=C/[C@H](Cc2ccccc2)NC(=O)[C@@H]2C[C@H](C)CN2C(=O)[C@H](CO)NC1=O` [NOSTOCYCLOPEPTIDE A2], the 50% inhibitory concentration (IC50) with KB is 1 µM; in the assay on LoVo, 1 µM; in assay [4], more than 50 µM; in assay [5], less than 25 µM; on Plasminogen it was more than 50 µM; in assay [6], less than 25 µM. Further, the IC50 at Papain is less than 25 µM; on Prothrombin, more than 50 µM. Besides, the outcome (in the assay with Candida albicans; in the assay on Pseudomonas aeruginosa; in assay [1]; in assay [2]; in assay [3]) was inactive.

The record behind these values is ChEMBL document CHEMBL1150221, “Isolation and structure determination of nostocyclopeptides A1 and A2 from the terrestrial cyanobacterium Nostoc sp. ATCC53789” (J Nat Prod, 2001).
